Structures are written as SMILES.

Data set [1] addresses Melatonin MT1 (Homo sapiens, UniProt P48039). As to the kind of experiment: Lead profiling screen. The class given is binding.
Data set [2] has as its target T1, Adenosine A3 (Homo sapiens, UniProt P0DMS8).
T1 sequence (P0DMS8 1-318): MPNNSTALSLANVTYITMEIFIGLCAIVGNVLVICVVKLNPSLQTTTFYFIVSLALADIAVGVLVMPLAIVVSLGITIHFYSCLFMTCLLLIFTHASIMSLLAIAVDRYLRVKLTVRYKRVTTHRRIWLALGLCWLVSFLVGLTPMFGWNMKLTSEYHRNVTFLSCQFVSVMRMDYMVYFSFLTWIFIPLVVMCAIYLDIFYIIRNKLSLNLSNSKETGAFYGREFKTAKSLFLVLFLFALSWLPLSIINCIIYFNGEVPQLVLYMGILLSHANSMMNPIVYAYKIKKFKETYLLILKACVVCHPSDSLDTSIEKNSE
As to the kind of experiment: Lead profiling screen. Format: binding. To be noted: for inhibition at 10 µM: Adenosine A3, Human.

Data set [3] has as its system BZD (central). Nature of the data set: Lead profiling screen. Format: binding. The conditions noted are these: 10 μM, Rat.
The target in data set [4] is BZD (peripheral) (Rattus norvegicus, UniProt P16257). As to the kind of experiment: Lead profiling screen. The class given is binding. The conditions noted are these: for inhibition at 10 µM: BZD (peripheral) / TSPO, Rat.
BZD (peripheral), sequence (P16257 whole entry): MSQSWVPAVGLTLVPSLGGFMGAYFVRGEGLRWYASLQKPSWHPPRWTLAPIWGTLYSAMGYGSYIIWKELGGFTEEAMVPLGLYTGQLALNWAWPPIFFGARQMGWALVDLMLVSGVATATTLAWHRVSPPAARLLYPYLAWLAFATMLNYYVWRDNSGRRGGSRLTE
The target of data set [5] is T2, Melatonin MT2 (Homo sapiens, UniProt P49286).
T2 sequence (P49286 1-362): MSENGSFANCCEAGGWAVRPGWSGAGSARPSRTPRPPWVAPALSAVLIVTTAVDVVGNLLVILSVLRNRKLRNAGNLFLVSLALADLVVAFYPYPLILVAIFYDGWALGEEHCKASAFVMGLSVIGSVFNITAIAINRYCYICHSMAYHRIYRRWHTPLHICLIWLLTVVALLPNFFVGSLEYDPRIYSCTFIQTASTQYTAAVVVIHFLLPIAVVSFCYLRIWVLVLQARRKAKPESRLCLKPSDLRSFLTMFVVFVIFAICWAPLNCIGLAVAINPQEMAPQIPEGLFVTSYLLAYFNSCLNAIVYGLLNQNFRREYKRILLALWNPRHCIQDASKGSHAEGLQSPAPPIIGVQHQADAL
Nature of the data set: Lead profiling screen. The conditions noted are these: for inhibition at 10 µM: Melatonin MT2, Human. Format: binding.

In data set [6] the target is T3, AR (Homo sapiens, UniProt P10275).
T3 sequence (P10275 1-920): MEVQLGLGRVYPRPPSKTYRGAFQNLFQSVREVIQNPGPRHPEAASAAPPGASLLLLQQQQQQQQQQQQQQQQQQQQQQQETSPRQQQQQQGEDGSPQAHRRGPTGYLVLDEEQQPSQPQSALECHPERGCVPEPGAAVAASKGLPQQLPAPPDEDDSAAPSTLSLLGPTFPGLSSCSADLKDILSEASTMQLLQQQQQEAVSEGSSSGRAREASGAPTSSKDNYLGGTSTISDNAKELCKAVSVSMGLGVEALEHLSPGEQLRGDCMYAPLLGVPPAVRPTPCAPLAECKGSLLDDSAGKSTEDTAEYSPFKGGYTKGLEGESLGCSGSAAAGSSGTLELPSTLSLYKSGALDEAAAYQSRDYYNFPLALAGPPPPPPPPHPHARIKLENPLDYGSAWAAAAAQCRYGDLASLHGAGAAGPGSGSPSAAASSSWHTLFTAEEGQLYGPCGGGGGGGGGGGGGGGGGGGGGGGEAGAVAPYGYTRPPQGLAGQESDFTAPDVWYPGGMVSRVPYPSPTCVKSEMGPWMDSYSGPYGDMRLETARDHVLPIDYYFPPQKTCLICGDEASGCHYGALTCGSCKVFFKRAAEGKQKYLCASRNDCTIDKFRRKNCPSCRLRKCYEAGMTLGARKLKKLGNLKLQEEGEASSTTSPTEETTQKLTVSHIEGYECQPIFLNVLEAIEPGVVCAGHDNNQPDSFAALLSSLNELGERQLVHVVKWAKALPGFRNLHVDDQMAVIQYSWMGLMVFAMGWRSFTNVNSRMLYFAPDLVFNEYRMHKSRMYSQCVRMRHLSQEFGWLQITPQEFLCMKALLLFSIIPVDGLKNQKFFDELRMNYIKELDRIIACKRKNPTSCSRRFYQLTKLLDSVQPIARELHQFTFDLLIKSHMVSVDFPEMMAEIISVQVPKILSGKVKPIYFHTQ
Nature of the data set: Lead profiling screen. Format: binding. The conditions noted are these: Rat.

Data set [7] deals with Cl^- channel (GABA gated). Nature of the data set: Lead profiling screen. The class given is binding. The conditions noted are these: 10 μM, Rat.
In data set [8] the target is Serotonin (5-Hydroxytryptamine) 5-HT2B (Homo sapiens, UniProt P41595). Nature of the data set: Lead profiling screen. The conditions noted are these: for inhibition at 10 µM: 5-HT2B, Human. Format: binding.
Serotonin (5-Hydroxytryptamine) 5-HT2B, sequence (P41595 whole entry): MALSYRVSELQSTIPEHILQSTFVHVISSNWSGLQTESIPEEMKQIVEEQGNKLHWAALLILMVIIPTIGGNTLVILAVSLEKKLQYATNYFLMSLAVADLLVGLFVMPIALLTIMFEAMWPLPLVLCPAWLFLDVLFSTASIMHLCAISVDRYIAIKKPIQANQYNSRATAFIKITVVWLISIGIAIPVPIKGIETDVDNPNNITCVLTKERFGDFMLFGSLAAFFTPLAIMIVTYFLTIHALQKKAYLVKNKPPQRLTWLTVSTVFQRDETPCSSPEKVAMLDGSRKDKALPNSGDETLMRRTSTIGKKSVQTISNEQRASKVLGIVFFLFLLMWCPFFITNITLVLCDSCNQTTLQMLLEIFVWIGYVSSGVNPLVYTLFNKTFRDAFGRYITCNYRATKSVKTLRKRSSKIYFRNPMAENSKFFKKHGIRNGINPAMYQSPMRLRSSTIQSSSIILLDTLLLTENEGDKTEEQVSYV
The target in data set [9] is T4, UT (Homo sapiens, UniProt Q9UKP6).
T4 sequence (Q9UKP6 1-389): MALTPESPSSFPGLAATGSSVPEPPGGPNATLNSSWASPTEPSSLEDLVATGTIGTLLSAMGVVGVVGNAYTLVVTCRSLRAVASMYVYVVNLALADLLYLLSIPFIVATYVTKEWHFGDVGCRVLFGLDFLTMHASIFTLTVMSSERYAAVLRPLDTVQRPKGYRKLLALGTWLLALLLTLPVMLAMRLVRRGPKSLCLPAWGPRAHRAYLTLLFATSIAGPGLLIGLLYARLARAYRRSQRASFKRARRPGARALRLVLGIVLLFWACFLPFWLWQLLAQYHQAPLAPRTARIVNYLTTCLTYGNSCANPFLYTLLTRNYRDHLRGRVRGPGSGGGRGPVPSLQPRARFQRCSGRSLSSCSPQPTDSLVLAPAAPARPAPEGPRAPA
As to the kind of experiment: Lead profiling screen. The conditions noted are these: for inhibition at 10 µM: UT, Human. Format: binding.

Data set [10] deals with Cyclooxygenase 1 (Homo sapiens, UniProt P23219). Nature of the data set: Lead profiling screen, enzyme assay. The class given is biochemical.
Cyclooxygenase 1, sequence (P23219 24-599, species assumed): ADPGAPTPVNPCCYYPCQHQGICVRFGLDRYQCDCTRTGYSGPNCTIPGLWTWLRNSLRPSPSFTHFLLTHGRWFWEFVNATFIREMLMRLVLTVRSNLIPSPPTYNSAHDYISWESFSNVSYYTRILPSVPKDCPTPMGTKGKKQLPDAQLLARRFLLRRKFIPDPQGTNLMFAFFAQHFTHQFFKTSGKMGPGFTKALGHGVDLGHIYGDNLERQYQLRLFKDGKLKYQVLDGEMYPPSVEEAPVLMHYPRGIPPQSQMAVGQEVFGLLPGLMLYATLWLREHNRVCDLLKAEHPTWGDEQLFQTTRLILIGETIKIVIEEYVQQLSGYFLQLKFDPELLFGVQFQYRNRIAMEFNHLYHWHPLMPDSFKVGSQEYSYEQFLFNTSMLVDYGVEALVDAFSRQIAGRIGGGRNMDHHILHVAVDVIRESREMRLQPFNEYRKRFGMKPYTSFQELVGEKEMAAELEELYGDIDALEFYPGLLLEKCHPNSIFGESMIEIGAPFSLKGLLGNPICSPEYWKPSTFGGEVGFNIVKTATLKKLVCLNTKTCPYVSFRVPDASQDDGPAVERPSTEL
Data set [11] concerns the target ctRAGE. To be noted: read-out: ctRAGE Kd; cited from earlier work.
Data set [12] deals with EP2 (Homo sapiens, UniProt P43116). Nature of the data set: Lead profiling screen. The class given is binding.
EP2, sequence (P43116 whole entry): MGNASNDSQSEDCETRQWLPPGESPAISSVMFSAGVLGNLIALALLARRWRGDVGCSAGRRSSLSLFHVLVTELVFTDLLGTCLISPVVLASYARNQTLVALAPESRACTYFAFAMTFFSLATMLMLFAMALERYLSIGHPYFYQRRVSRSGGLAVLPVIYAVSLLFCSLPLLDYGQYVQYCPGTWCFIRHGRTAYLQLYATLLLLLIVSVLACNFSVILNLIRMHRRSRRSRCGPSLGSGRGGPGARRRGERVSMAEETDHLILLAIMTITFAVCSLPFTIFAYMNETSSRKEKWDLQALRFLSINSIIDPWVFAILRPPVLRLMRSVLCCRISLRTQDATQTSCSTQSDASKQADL
The target in data set [13] is Serotonin (5-Hydroxytryptamine) 5-HT2A (Homo sapiens, UniProt P28223). As to the kind of experiment: Lead profiling screen. Format: binding.
Serotonin (5-Hydroxytryptamine) 5-HT2A, sequence (P28223 whole entry): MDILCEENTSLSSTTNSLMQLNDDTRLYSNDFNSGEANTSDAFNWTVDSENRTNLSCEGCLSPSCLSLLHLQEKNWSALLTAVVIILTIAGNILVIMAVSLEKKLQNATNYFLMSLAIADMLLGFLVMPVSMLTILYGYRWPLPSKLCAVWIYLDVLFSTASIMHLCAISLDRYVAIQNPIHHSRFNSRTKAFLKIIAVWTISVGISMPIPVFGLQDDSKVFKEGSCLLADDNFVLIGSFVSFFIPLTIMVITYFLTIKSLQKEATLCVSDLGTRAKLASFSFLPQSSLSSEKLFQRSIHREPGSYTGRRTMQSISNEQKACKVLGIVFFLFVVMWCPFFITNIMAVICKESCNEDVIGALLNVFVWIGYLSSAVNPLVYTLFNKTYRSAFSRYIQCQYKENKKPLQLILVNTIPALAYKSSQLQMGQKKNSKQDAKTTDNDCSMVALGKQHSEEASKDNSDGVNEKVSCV
In data set [14] the target is Norephinephrine transporter (Homo sapiens, UniProt P23975). As to the kind of experiment: Lead profiling screen. Format: binding.
Norephinephrine transporter, sequence (P23975 whole entry): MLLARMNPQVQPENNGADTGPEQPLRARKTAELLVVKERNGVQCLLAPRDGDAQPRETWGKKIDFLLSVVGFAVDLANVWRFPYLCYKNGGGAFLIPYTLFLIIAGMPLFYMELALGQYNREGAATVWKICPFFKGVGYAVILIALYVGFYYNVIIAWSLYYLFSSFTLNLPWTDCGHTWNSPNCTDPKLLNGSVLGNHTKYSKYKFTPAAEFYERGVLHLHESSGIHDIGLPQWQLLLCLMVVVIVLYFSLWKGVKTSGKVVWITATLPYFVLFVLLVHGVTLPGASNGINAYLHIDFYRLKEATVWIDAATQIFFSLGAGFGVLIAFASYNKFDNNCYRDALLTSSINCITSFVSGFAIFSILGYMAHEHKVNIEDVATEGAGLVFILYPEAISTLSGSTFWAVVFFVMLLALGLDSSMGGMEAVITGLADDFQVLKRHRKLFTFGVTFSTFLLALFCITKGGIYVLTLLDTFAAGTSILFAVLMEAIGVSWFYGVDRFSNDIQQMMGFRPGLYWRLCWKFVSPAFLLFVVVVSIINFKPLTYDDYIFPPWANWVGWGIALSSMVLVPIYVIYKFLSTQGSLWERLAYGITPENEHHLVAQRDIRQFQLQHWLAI
The nature of data set [15]: [18F]RAGER autoradiography, competitive binding with melatonin. More on the design: species or system human. The conditions noted are these: 10 μM melatonin; control, AD and DLB + AD brain tissue sections.
A short description of data set [16]: Rodent [18F]RAGER PET, melatonin blocking. To be noted: 5 μg/kg i.v. 10 min prior to [18F]RAGER, healthy rodents.
Data set [17] in a line: Nonhuman primate [18F]RAGER PET, melatonin blocking and displacement. The conditions noted are these: NHP.
The target of data set [18] is T5, Androgen (Testosterone) (Homo sapiens, UniProt P10275).
T5 sequence (P10275 1-920): T3 sequence (P10275 1-920)
As to the kind of experiment: Lead profiling screen. The class given is binding.

Data set [19] concerns the target Transporter, Dopamine (DAT) (Homo sapiens, UniProt Q01959). Nature of the data set: Lead profiling screen. Format: binding.
Data set [20] deals with Peripheral benzodiazepine receptor (Rattus norvegicus, UniProt P16257). As to the kind of experiment: Lead profiling screen, RAGER. The class given is binding.
Peripheral benzodiazepine receptor, sequence (P16257 whole entry): as the sequence (P16257 whole entry) above
The conditions of data set [21]: cited from earlier work.

Melatonin MT1, sequence (P48039 whole entry): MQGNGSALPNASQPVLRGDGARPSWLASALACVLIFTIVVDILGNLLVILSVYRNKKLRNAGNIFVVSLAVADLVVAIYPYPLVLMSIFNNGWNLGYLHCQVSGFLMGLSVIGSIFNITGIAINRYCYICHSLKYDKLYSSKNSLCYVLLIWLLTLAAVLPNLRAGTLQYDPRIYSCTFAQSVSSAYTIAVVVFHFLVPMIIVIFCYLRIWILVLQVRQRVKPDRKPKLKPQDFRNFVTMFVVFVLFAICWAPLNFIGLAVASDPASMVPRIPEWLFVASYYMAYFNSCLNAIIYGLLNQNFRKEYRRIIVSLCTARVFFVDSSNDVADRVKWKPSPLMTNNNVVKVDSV
Transporter, Dopamine (DAT), sequence (Q01959 whole entry): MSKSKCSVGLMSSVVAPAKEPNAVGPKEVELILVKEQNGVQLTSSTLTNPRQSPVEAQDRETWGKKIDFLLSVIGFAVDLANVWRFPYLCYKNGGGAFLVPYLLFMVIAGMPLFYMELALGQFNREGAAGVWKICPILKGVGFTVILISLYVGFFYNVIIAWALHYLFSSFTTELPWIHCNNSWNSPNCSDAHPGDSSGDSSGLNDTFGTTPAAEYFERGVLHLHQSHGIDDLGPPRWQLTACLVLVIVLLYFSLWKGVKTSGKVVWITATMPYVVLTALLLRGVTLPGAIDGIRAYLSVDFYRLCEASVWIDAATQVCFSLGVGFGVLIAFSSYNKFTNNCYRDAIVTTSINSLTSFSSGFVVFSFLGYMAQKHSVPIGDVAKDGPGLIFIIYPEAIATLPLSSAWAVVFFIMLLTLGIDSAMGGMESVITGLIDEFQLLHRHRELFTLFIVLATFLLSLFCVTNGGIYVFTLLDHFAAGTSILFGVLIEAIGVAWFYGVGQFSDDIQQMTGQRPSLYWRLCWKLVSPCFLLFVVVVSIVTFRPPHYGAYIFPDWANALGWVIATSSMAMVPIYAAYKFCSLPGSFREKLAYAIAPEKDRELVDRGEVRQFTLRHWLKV

`O=C(c1ccc(Cl)cc1)N(Cc1ccccc1)C1CCCCC1` [FPS-ZM1, N-Benzyl-N-cyclohexyl-4-chlorobenzamide]: the IC50 in data set [1] amounted to 1500 nM; in data set [5], 7000 nM. For the same compound, the Ki in [1] is 1200 nM; in [5], 4400 nM. Also, the inhibition at 10 µM worked out at 54% in data set [1]; 64% in data set [2]; 85% in data set [4]; 54% in data set [5]; 88% in data set [6]. The “% Inhibition” value in data set [3] worked out at 59%; in data set [7] it was 62%.
With `COc1cc(NC(C)=O)c(Cl)cc1C(=O)Nc1nccs1` [InRAGER2, 4-Acetamido-5-chloro-2-methoxy-N-(thiazol-2-yl)benzamide], the IC50 in [2] came out at 1400 nM; in [4], 480 nM; in [8], 260 nM; in data set [9], 1400 nM; in data set [10], 12000 nM. In addition, the Ki in data set [2] turned out to be 830 nM; in [4], 440 nM; in data set [8], 130 nM; in data set [9], 1000 nM. Besides, the inhibition at 10 µM in data set [2] stood at 75%; in data set [4] it was 81%; in data set [8], 95%; in data set [9] it was 85%. Further, the Kd in data set [11] is 0.3 ± 0.05 nM.
Regarding `Oc1cccc(Nc2nc(-c3ccc(F)cc3F)cs2)c1` [InRAGER, 3-((4-(2,4-difluorophenyl)thiazol-2-yl)amino)phenol], the Ki in [2] was 24 nM; in [4] it was 12000 nM; in data set [12] it was 2300 nM; in data set [13], 7800 nM; in data set [8] it was 550 nM; in [9], 8900 nM. Affinity in data set [14] was put at a Ki of 1500 nM. Besides, the inhibition at 10 µM in [2] came to 99%; in data set [12] (10 μM, EP2, Human), 74%; in data set [8] it was 97%; in data set [9] it was 78%; in [14] (10 μM, Norephinephrine transporter, Human) it was 95%. The IC50 in [4] came to 480 nM; in [8] it was 260 nM; in data set [9] it was 1400 nM. Also, in data set [11], the Kd was 1 ± 0.5 nM.
With `COc1ccc2[nH]cc(CCNC(C)=O)c2c1` [Melatonin], in [15], the “displacement of [18F]RAGER” value is given as “not able to displace”. Further, the “effect on [18F]RAGER uptake or washout compared to baseline” value in [16] was “no effect”. Besides, the “change in radioligand uptake, maximal SUV, TAC shape vs baseline (blocking)” value in [17] (5 μg/kg i.v. 10 min prior to [18F]RAGER) is listed as “did not reveal any decrease”. The “maximal SUV or TAC shape vs baseline (displacement)” value in data set [17] (10 μg/kg i.v. 40 min into the 90 min scan) is reported as “did not differ significantly”.
Consider `O=C(c1ccc(F)cc1)N(Cc1ccccc1)C1CCCCC1` [RAGER, N-Benzyl-N-cyclohexyl-4-fluorobenzamide], for which the Ki was determined as 2600 nM in data set [18]; 93 nM in data set [1]; 6800 nM in data set [19]; 700 nM in [5]; 8500 nM in data set [20]. The inhibition at 10 µM is 59% in [18]; 96% in [1]; 52% in [19]; 82% in [5]; 64% in data set [20] (read-out: %Inhibition at 10 μM). Further, in data set [21], the “experimental log P” value is reported as 3.5.

The values above are taken from publication PMC7591811 (Journal of Pharmaceutical Analysis, 2020).
